From US12630525B2, “Triazinylmethylcycloalkylcarboxylic acid derivative, and pharmaceutical composition and use thereof” (SHANGHAI HAIYAN PHARMACEUTICAL TECHNOLOGY CO., LTD., priority 2021, dated 2026)

Key:
[1] = biological target: T1, hP2X2/3 (Homo sapiens, UniProt P56373+Q9UBL9); test: FLIPR assay, antagonistic activity against hP2X2/3 receptor (selectivity versus P2X3); assay type: cell-based; settings: Multiple of P2X2/3 inhibitory activity and P2X3 inhibitory activity
T1 construct: host or cells: 1321N1
T1 sequence (P56373 1-397): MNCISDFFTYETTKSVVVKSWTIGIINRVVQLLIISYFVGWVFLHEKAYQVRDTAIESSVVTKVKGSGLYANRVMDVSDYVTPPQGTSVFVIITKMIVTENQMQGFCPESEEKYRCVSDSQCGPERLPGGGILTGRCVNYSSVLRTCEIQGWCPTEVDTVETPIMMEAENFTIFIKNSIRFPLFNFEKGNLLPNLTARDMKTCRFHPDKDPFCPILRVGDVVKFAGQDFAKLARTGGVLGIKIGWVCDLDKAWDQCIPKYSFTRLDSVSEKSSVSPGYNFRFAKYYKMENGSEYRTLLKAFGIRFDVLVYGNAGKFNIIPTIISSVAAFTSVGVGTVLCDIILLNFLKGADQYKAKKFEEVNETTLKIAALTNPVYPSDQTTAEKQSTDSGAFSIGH
T1 sequence (Q9UBL9 1-471): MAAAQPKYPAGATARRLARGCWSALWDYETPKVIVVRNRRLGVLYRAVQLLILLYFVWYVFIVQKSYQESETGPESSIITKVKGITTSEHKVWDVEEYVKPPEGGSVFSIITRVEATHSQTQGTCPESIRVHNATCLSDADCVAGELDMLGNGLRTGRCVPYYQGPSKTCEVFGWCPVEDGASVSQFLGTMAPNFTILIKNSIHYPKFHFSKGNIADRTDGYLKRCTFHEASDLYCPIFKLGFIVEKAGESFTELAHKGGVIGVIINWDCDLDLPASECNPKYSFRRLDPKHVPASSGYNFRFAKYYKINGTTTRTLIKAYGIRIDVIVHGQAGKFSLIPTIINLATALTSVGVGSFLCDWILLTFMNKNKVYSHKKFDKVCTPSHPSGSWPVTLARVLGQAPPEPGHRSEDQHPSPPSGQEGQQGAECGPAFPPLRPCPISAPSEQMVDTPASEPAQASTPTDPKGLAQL
Experimental: (§1) Test Example 1: Screening Compounds for Antagonistic Activity Against hP2X3/hP2X2/3 Receptors by FLIPR Assay
(§2) Cell preparation: Cells 1321N1/hP2X3 and cells 1321N1/hP2X2/3 (supplier: Chempartner) were […] with Versene digestive solution. After centrifugation, the cells were suspended using plate medium (DMEM+[…]) and counted. The cells were adjusted to 3×10^5 cells/mL. Each of the 384-well test plates was covered with 50 μL cells and cultured in a […] incubator at 37° C. for 16 hours to 24 hours.
(§3) Compound preparation: 1. Test sample: test compound at a concentration 180 times the required concentration (54 mM DMSO stock solution) was prepared using DMSO in a 384-well polypropylene microporous plate conforming to Echo standard, 500 nL of which was added to each well of a 384-well compound plate. Then 30 μL of test buffer (1*HIBSS+2 mM CaCl2+20 mM HEPES containing 1.26 mM Ca^2+) was added to each well. The 384-well compound plate was shook for 20 min to 40 min to mix well.
(§4) 2. Agonist: agonist ([…]) at a concentration 3 times the required concentration (the final concentration of 3000 nM is required for both hP2X3 and hP2X2/3 cells) was prepared with the test buffer. 45 μL of agonist was added to each well of the 384-well compound plate.
(§5) Dye incubation: The cell plate was taken out. The supernatant was removed. 30 uL of Dye (FLTPR® Calcium 4 Assay Kit, test buffer diluted) was added to each well. The cells were incubated for 1 hour.
(§6) FLTPR detection: 15 μL of compound was added to each well of the cell plate (FLTPR instrument sampling). After 15 minutes, 22.5 μL of agonist was added to each well. Fluorescence signals (excitation wavelength of 470 nm to 495 nm, emission wavelength of 515 nm to 575 nm) were detected.
(§7) Data processing: the difference between the peak value and the valley value of the signal was taken as the basic data. The highest concentration of positive drug was taken as 100% inhibition rate, and DMSO data was taken as 0% inhibition rate. The inhibition curves of compounds were fitted by log (inhibitor) vs. response—Variable slope on Graphpad prism 6 and the IC50 value was calculated.
(§8) Experimental homogeneity standard: each plate was subjected to ≥12 max values (DMSO action results) and ≥12 min values (highest concentration positive drug action results), and the Z value was calculated. If Z≥0.5, it is considered that the parallel wells are homogenous and the data is reliable. The calculation formula for Z value is as follows: Z=1−3*(SDmax+SDmin)/([…]).

[2] = biological target: T2, hP2X3 (Homo sapiens, UniProt P56373); test: FLIPR assay, antagonistic activity against hP2X3 receptor; assay type: cell-based; settings: 1321N1/hP2X3 cells, FLIPR Calcium 4, agonist 3000 nM; read-out: P2X3 (IC50/nM)
T2 construct: host or cells: 1321N1
T2 sequence (P56373 1-397): T1 sequence (P56373 1-397)
Experimental: as §1, §2, §3, §4, §5, §6, §7, §8

[3] = system: mechanical pain hypersensitivity in the rat CFA inflammatory pain model; test: Analgesic effect in rat CFA inflammatory pain model (von Frey paw withdrawal threshold); assay type: in vivo, SD rats
Experimental: Test Example 2: Evaluation of Analgesic Effect of Rat CFA Inflammatory Pain Model
Experimental animals: 50 male SD rats with a weight of 230 g to 260 g were used. All the experimental animals were purchased from Beijing Weitonglihua Experimental Animal Technology Co., LTD. After purchase, food and water were supplied in the way of free feeding. The feeding temperature was 20° C. to 25° C. The humidity was 40% to 70%. The animals were kept in separate cages and labeled using the tail labeling method.
An emulsion was obtained by mixing full Freund's adjuvant with saline in equal amount. A certain amount of the emulsion was injected subcutaneously into the rats. The animal was placed in a specially designed multi-unit metal mesh cage for pain detection and allowed to acclimate for 15 minutes. After the animal's grooming and investigation activities were completed and acclimated to the detection environment, a series of calibrated von Frey filaments (0.4, 0.6, 1.0, 1.4, 2, 4, 6, 8, 10, 15) were continuously applied to the back paw until a withdrawal reflex reaction occurred. The tester conducted blind test on the experiment, and the experimental results were expressed as “mean±standard deviation”. The data of each group are analyzed by GraphPad Prism 5 t test, with statistical difference at P<0.05.

[4] = Exposure at the effective dose in the rat pain model (basis for safety windows); settings: in vivo
Source text: Calculation Basis for Safety Windows:

[5] = 14-day toxicity test with toxicokinetics in SD rats; assay type: in vivo; settings: for AUC / Cmax: SD, rat, blood, 100 mg/kg
Experimental: Test Example 3: Toxicity Test
There were 16 male and 16 female SD rats with SPF grade. Male SD rats weighed about 240 g and were 6 to 9 weeks old. Female SD rats weighed about 200 g and were 6 to 9 weeks old. All the experimental animals were purchased from Zhejiang Weitonglihua Experimental Animal Technology Co., LTD. After purchase, food and water were supplied in the way of free feeding. The feeding temperature was 20° C. to 26° C. The humidity was 40% to 70%. The number of air changes per hour was ≥15 times, and 100% fresh air was used. Automatic lighting and alternating light and dark every 12 hours were used. Male and female are kept in separate cages, with no more than 5 rats per cage.
Animals in each group were randomly divided according to gender and body weight, and were given the medicament once a day for 14 days according to the dose design in Table 7. Toxicokinetic blood sampling was performed in each dose group 30 min, 1 hr, 4 hr, 7 hr, 10 hr and 24 hr before and after the first and last administration, respectively, to investigate the toxicokinetic process in SD rats of each group.

[6] = female, female SD rats, 100 mg/kg once a day for 14 days, last administration, read-out: AUC0t Last administration
[7] = female, female SD rats, 100 mg/kg once a day for 14 days, last administration, read-out: Cmax Last administration
[8] = female, female SD rats, 100 mg/kg once a day, first administration, read-out: AUC0t First administration
[9] = female, female SD rats, 100 mg/kg once a day, first administration, read-out: Cmax First administration
[10] = male, male SD rats, 100 mg/kg once a day for 14 days, last administration, read-out: AUC0t Last administration
[11] = male, male SD rats, 100 mg/kg once a day for 14 days, last administration, read-out: Cmax Last administration
[12] = male, male SD rats, 100 mg/kg once a day, first administration, read-out: AUC0t First administration
[13] = male, male SD rats, 100 mg/kg once a day, first administration, read-out: Cmax First administration

O=C(O)[C@@H]1C[C@@H]1Cn1c(=O)[nH]/c(=N\c2ccc(Oc3ccccn3)cc2)n(Cc2ccc(Cl)cc2)c1=O (racemic) [Compound H1, (±) cis-2-((3-(4-chlorobenzyl)-2,6-dioxo-4-(4-(pyridin-2-yloxy)phenylimino)-1,3,5-triazin-1-yl)methyl)cyclopropanecarboxylic acid]
Selectivity multiple [1]: 27

O=C(O)[C@@H]1C[C@H]1Cn1c(=O)[nH]/c(=N\c2ccc(Oc3ccccn3)cc2)n(Cc2ccc(Cl)cc2)c1=O (racemic) [Compound H2, (±) trans-2-((3-(4-chlorobenzyl)-2,6-dioxo-4-(4-(pyridin-2-yloxy)phenylimino)-1,3,5-triazin-1-yl)methyl)cyclopropanecarboxylic acid]
Selectivity multiple [1]: 151

O=C(O)[C@@H]1C[C@H]1Cn1c(=O)[nH]/c(=N\c2ccc(Oc3ccc(F)cn3)cc2)n(Cc2ccc(Cl)cc2)c1=O (racemic) [Compound H5, (±) trans-2-((3-(4-chlorobenzyl)-4-((4-((5-fluoropyridin-2-yl)oxy)phenyl)imino)-2,6-dioxo-1,3,5-triazin-1-yl)methyl)cyclopropan-1-carboxylic acid]
Selectivity multiple [1]: 251

O=C(O)[C@@H]1C[C@H]1Cn1c(=O)[nH]/c(=N\c2ccc(Oc3cccc(F)n3)cc2)n(Cc2ccc(Cl)cc2)c1=O (racemic) [Compound H7, (±) trans-2-((3-(4-chlorobenzyl)-4-((4-((6-fluoropyridin-2-yl)oxy)phenyl)imino)-2,6-dioxo-1,3,5-triazin-1-yl)methyl)cyclopropan-1-carboxylic acid]
Selectivity multiple [1]: 114 | IC50 [2]: 73 nM

O=C(O)[C@@H]1C[C@H]1Cn1c(=O)[nH]/c(=N\c2ccc(Oc3ncccc3F)cc2)n(Cc2ccc(Cl)cc2)c1=O (racemic) [Compound H8, (±) trans-2-((3-(4-chlorobenzyl)-4-((4-((3-fluoropyridin-2-yl)oxy)phenyl)imino)-2,6-dioxo-1,3,5-triazin-1-yl)methyl)cyclopropane-1-carboxylic acid]
Selectivity multiple [1]: 238 | IC50 [2]: 148 nM

C[C@@H](Cn1c(=O)nc(Nc2ccc(Oc3ccccn3)cc2)n(Cc2ccc(Cl)cc2)c1=O)C(=O)O [Compound D1, reference compound]
effective dose in the rat pain model ([3]; oral): 60 mg/kg | AUC ([4]; 60 mg/kg): ~1570 µg·h/mL | Cmax ([4]; 60 mg/kg): ~141 µg/mL | AUC [5, 6]: 2150 µg·h/mL | Cmax [5, 7]: 156 µg/mL | AUC [5, 8]: 2420 µg·h/mL | Cmax [5, 9]: 185 µg/mL | AUC [5, 10]: 2540 µg·h/mL | Cmax [5, 11]: 188 µg/mL | AUC [5, 12]: 2770 µg·h/mL | Cmax [5, 13]: 200 µg/mL

O=C(O)[C@H]1C[C@@H]1Cn1c(=O)[nH]/c(=N\c2ccc(Oc3ccc(F)cn3)cc2)n(Cc2ccc(Cl)cc2)c1=O [Compound H5-P1, (1S,2S)-2-((3-(4-chlorobenzyl)-4-((4-((5-fluoropyridin-2-yl)oxy)phenyl)imino)-2,6-dioxo-1,3,5-triazin-1-yl)methyl)cyclopropan-1-carboxylic acid]
Selectivity multiple [1]: 590 | IC50 [2]: 23 nM | analgesic effect 4 hours after administration ([3]; 60 mg/kg oral, 4 hours after administration): good analgesic effect | mechanical pain hypersensitivity (paw withdrawal threshold) ([3]; rat CFA model, oral, 30 and 60 mg/kg, FIG. 2 and FIG. 3): significantly inhibits | effective dose in the rat pain model ([3]; oral): 30 mg/kg | AUC ([4]; 30 mg/kg): ~249 µg·h/mL | Cmax ([4]; 30 mg/kg): ~18.4 µg/mL | AUC [5, 6]: 1740 µg·h/mL | Cmax [5, 7]: 135 µg/mL | AUC [5, 8]: 1420 µg·h/mL | Cmax [5, 9]: 112 µg/mL | safety window (in words) ([5]; from the data in Table 8): high | AUC [5, 10]: 2390 µg·h/mL | Cmax [5, 11]: 162 µg/mL | AUC [5, 12]: 1460 µg·h/mL | Cmax [5, 13]: 101 µg/mL

O=C(O)[C@@H]1C[C@H]1Cn1c(=O)[nH]c(=Nc2ccc(Oc3ccc(F)cn3)cc2)n(Cc2ccc(Cl)cc2)c1=O [Compound H5-P2, (1R,2R)-2-((3-(4-chlorobenzyl)-4-((4-((5-fluoropyridin-2-yl)oxy)phenyl)imino)-2,6-dioxo-1,3,5-triazin-1-yl)methyl)cyclopropan-1-carboxylic acid]
Selectivity multiple [1]: 176 | IC50 [2]: 106 nM
